Read-outs that look alike come from different tables or passages of the source.

Series [1] relates to maximal electroshock seizures. The experiment in a line: Maximal Electroshock Seizure Test. The settings on record: for anti-MES activity: comparison of anticonvulsant profiles. It counts as in vivo, mice. Here is the method: One recognized test which is frequently used for this purpose is to determine the capacity of the drug to modify the effects of maximal electric shock (MES) by inhibition of tonic hindlimb extension. See, for example, the test described by Swinyard and co-workers at J. Pharmacol. Exper. Therap. 106, 319-330 (1952).
(§1) Compounds were tested for anticonvulsant activity and toxicity in mice by the following tests.
Maximal Electroshock Seizure Test
At the time of peak effect of the test substance, a drop of 0.9% sodium chloride is applied to the eyes of each animal. Corneal electrodes are applied to the eyes, and an electrical stimulus of 50 mA is delivered for 0.2 sec. The animals are held by hand and released at the time of stimulation for observation of the seizure. Abolition of the hindleg tonic extension component is taken as the endpoint for this test.
(In general: Protection in the maximal electroshock model is a classic sign of anticonvulsant action.)

In series [2] the test system is pentylenetetrazol seizures. The experiment in a line: Pentylenetetrazol Seizure Threshold Test. Conditions: Mus musculus, mice. It counts as in vivo. Here is the method:
See, for example, Krall et al., Epilepsia 19, 409-428 (1978).
as §1
Pentylenetetrazol Seizure Threshold Test
The animals are placed in isolation cages and observed for the next 30 min. for the presence or absence of a seizure. A threshold convulsion is defined as one episode of clonic spasms that persists for at least a 5-sec period.

Series [3] can be described thus: Rotorod Test for Toxicity. Conditions: mouse, in vivo; mice; rotorod at 6 rpm, 10 min; at time of peak effect. As for the experimental part:
The rotorod test is a standard method used in mice to access neurotoxicity and is described, for example, by Krall et al., Epilepsia 19, 409-428 (1978).
as §1
Rotorod Test for Toxicity
This test is used in mice to assess neurotoxicity. Mice are placed on the rotorod, which rotates at 6 rpm, and tested for maintenance of their equilibrium for 10 min. All mice are pre-tested before test substance is given. At the time of peak effect of the test substance, mice are put back on the rotorod for 10 min. Neurological deficit (toxicity) is indicated by the inability of the animal to maintain its equilibrium for 10 min. on this rotating rod.

Setting [4] is: read-out: ED50 against (clonic) seizures produced by 85 mg/kg pentylenetetrazol, 85 mg/kg pentylenetetrazol IP, clonic (threshold) seizures.

`CCC1(C)CC(=O)NC1=O` (centres unmarked) [ethosuximide]: in series [1], the anti-MES activity result is listed as “do not”.

With `CCCC(CCC)C(=O)O` [valproic acid], the anti-MES activity result in series [1] is given as “have anti-MES activity”.

As usually defined, the TD50 is the dose at which the toxic effect under study appears in half of the subjects. As to `CCC1(C)CCOC1=O` (stereo not drawn) [α-EMBL, α-ethyl-α-methyl-γ-butyrolactone], the ED50 is 226 mg/kg in series [2] (setting [4]); 304 mg/kg in series [2] (read-out: ED50 against clonic seizures produced by 100 mg/kg pentylenetetrazol, 100 mg/kg pentylenetetrazol IP, clonic seizures); 250 mg/kg in series [2] (read-out: ED50 against tonic seizures produced by 100 mg/kg pentylenetetrazol, 100 mg/kg pentylenetetrazol IP, tonic seizures). For the same compound, the anti-MES activity result in series [1] is given as “do not”. Further, the “protection against maximal electroshock seizures” value in series [1] (mice, at doses up to 350 mg/kg) is reported as “No protection”. For the same compound, the TD50 in series [3] is around 350 mg/kg.

Regarding `CC(C)C1CCSC1=O` (stereo not drawn) [α-isopropyl-γ-thiobutyrolactone], the ED50 in series [2] (setting [4]) came out at 137 mg/kg; in series [1] (Mus musculus, read-out: ED50 against maximal electroshock seizures (MES)) it was 240 mg/kg. Further, the TD50 in series [3] was determined as 278 mg/kg.

The values above are taken from patent US4707491A, “Anticonvulsant γ-thiobutyrolactone derivatives” (Washington University, priority 1985, dated 1987).
